# Data: patent US20160287545A1, “COMPOUND PARTICULARLY FOR TREATING DEPRESSION AND ANXIETY” (priority 2012, published 2016)
# Assays:
# mouse [1] = conditions: cited from earlier work
# CD1 mice = experiment: swimming test in CD1 mice, antidepressant action of inhaled terpenes versus imipramine; assay type: in vivo; conditions: for isoeffect dose per body weight taking into account mean absorption factor (60%): 700x0.6, inhaling; for isoeffect dose with respect to imipramine: individual single inhalation giving approximately the same immobility time as imipramine, vaporized dose; for intrinsic activity (full agonist action, dose-effect comparison with imipramine): swimming test, inhaled; for antidepressant activity: vaporized, inhaled for 24 hours (12+12 hours); for isoeffect dose per body weight: versus 30 mg/kg of imipramine
# Experimental: 4. For each test, CD-1® (ICR) Specific Pathogen Free NAF mice (16/18 g upon arrival) were used, originating from the supplier facility Charles River Laboratories, Calco, Italy; 5 mice for the control group, 5 mice for the reference test with imipramine, 5 mice for the substance tested in the first 4 tests and then 10 mice for all the other tests. The choice of CD1 mice was determined by the fact that it is considered to be the animal model suitable for performing the swimming test for the evaluation of substances having an antidepressant action.
# 5. For terpene vaporization, “Elettromatt Turispharma” electric vaporizers were used (PCT/EP 97/01897, inventors Bevilacqua M, Zaccagna C A), heated to a constant temperature of 90° C.
# The three groups of mice were placed in three transparent plastic boxes with the size of 150 cm×75 cm and a volume di […] at a controlled temperature (19.0-21.0° C.), in air prefiltered with an HEPA absolute filter without flow, humidity (40-50%) and darkness/light cycle (12 hours/12 hours).
# The control group received the carrier (physiological solution) by IP pathway.
# The administration path of the substances being considered was intraperitoneal for imipramine and the pulmonary path was used for the terpene substances being considered, always vaporized with the same electric vaporizers.
# Reference test substance: imipramine 30 mg/Kg/ip=30.000 mcg/Kg/ip, equal to 0.6 mg per animal, administered 30 minutes before the test.
# Subsequent tests were performed with the individual components (35 mg repeated after 12 hours), in pairs (35 mg+35 mg, repeated after 12 hours) and then all three together (35+35+35 mg repeated after 12 hours).
# The treatment was performed 30 minutes before the test for the control group and for the imipramine group intraperitoneally. The third group was subject, after the T0 test, to vaporization for 24 hours (12+12 hours) of the anonymous substance being considered.
# mouse [2] = conditions: cited from earlier work; remark: listed apart in the source
# rat = conditions: cited from earlier work
# [3] = cited from earlier work
# [4] = in vivo; cited from earlier work
# [5] = cited from earlier work; remark: listed apart in the source
# patients with bulimia = conditions: followed on for two years; cited from earlier work
# [6] = inhalation for 2 hours during a 50 W workload, healthy volunteers; cited from earlier work
# [7] = rat; cited from earlier work
# rats = conditions: inhaling, swimming test; cited from earlier work
# [8] = 200 and 400 mg/kg orally, mouse
smiles,measurement,setting,value
"CC12CCC(CC1)C(C)(C)O2 [1,8-cineol]",immobility time,mouse [1]; [8],significant increase in the immobility time
same,latency of pentobarbital sleep,mouse [1]; [8],reduced latency of pentobarbital sleep
same,dose observed in the literature,mouse [1]; in the mouse,200 to 400 mg/kg
same,motor coordination in the rotarod test,"mouse [1]; orally, mouse",no effects on motor coordination
same,isoeffect dose per body weight taking into account mean absorption factor (60%),CD1 mice,420 mg/kg
same,isoeffect dose with respect to imipramine,CD1 mice,70 mg
same,"intrinsic activity (full agonist action, dose-effect comparison with imipramine)",CD1 mice,1
same,antidepressant activity,CD1 mice,evident antidepressant activity
same,isoeffect dose per body weight,CD1 mice,700 mg/kg
same,"acute toxicity, oral dose",mouse [2],2480 mg/kg
same,effect of pretreatment with naloxone on anti-nociceptive action,rat; oral dose between 100 and 400 mg/kilograms,not canceled out by pretreatment with naloxone
same,anti-nociceptive action,rat; rat,comparable to morphine
same,time to detection in blood after inhaling,[3],5 min
same,time to concentration maximum in blood,[3]; inhaling,≤ 18 min
"CC(=O)O[C@@H]1CC[C@@]2(C)[C@@H](CC[C@]3(C)[C@@H]2C(=O)C=C2[C@@H]4[C@@H](C)[C@H](C)CC[C@]4(C)CC[C@]23C)[C@@]1(C)C(=O)O [AKBA, acetyl-11-keto-beta-boswellic acid]",brain/plasma ratio,[4],~0.81
"C[C@H]1[C@H](C)CC[C@]2(C)CC[C@]3(C)C(=CC(=O)[C@@H]4[C@@]5(C)CC[C@@H](O)[C@](C)(C(=O)O)[C@@H]5CC[C@]43C)[C@H]12 [KBA, 11-keto-beta-boswellic acid]",brain/plasma ratio,[4],approximately 0.51
"CN(C)CCCN1c2ccccc2CCc2ccccc21 [imipramine, imipramine chloride hydrate]",total mean immobility time,"CD1 mice; imipramine 30 mg/Kg ip 30 minutes before the test, mean of all 9 tests, 45 mice",41.11±16.12
same,solubility,[5],50 mg/mL
same,patients with considerable success,patients with bulimia,19 out of 20
"C=C(C)[C@H]1CC=C(C)CC1 [limonene, (R)-(+)-limonene]","pulmonary uptake, of the administered quantity",[6],70%
same,oral bioavailability,[7],43.0%
same,isoeffect dose per body weight taking into account mean absorption factor (60%),CD1 mice,420 mg/kg
same,isoeffect dose with respect to imipramine,CD1 mice,70 mg
same,"intrinsic activity (full agonist action, dose-effect comparison with imipramine)",CD1 mice,1
same,antidepressant activity,CD1 mice,evident antidepressant activity
same,isoeffect dose per body weight,CD1 mice,700 mg/kg
same,immobility time,rats,reduces significantly the immobility time
